Measurements from patent US20040266732A1, “Therapeutic agents, methods, and treatments” (priority 2002, published 2004).

Tests used:
Assay in all cases: NCI three cell-line test
Type in all cases: cell-based, human
Conditions in all cases: 1(10^−4) Molar in growth medium, percent of growth of untreated control cells
[1] = system: MCF7 Cell line (Breast Cancer)
Experimental: (§1) The testing in this Example was performed by NCI, as per their 3-cell line panel test. The results are reported as the percent of the growth of the treated cells compared to the untreated control cells. The criterion for being an effective compound and for being subjected to further testing is that the tested compound reduce the growth of any one of the three cell lines to approximately 32% or less.
(§2) The methods for conducting the test are described below in Example 3, except that the cells were exposed to a single concentration of MT103, at 1×10^−4 Molar, and colorimetric determinations were made with alamar blue (Biotechniques 21(5):780-782 (1996)).
(§3) Methodology: The NCI conducted a test of the MT103 drug against 60 human cell lines, with a minimum of five concentrations of MT103 at 10-fold dilutions. A 48 hour continuous drug exposure was used, and a sulforhodamine B (SRB) protein assay was used to estimate cell viability and growth. The human tumor cell lines of the cancer screening panel were grown in RPMI 1640 medium containing 5% fetal bovine serum and 2 mM L-glutamine. Cells were inoculated into 96 well microtiter plates in 100 μL at plating densities ranging from 5,000 to 40,000 cells/well depending on the doubling time of individual cell lines. After cell inoculation, the microtiter plates are incubated at 37° C., 5% CO2, 95% air, and 100% relative humidity for 24 h prior to addition of experimental drugs. […]
(§4) Following drug addition, the plates were incubated for an additional 48 h at 37° C., 5% CO2, 95% air, and 100% relative humidity. […] Bound stain was subsequently solubilized with 10 mM trizma base, and the absorbance was read on an automated plate reader at a wavelength of 515 nm. […] Using the seven absorbance measurements (time zero, (Tz), control growth, (C), and test growth in the presence of drug at the five concentration levels (Ti)), the percentage growth was calculated at each of the drug concentrations levels. Percentage growth inhibition was calculated as: […]

[2] = system: NCI-H460 Cell Line (Non-Small cell Lung)
Experimental: as §1, §2, §3, §4

[3] = system: SF-268 Cell Line (Central Nervous System)
Experimental: as §1, §2, §3, §4

With `CC1(C)C2CC[C@@]1(CS(=O)(=O)N(C1CCCCC1)C1CCCCC1)C(O)C2` (stereo partly drawn) [MT103] the “Growth, Percentage” value [1] was 0%, the “Growth, Percentage” value [2] was 16% and the “Growth, Percentage” value [3] was 14%.
